Legend:
[1] = target: Aβ1-40 on-fibril pathway oligomers (Homo sapiens, UniProt P05067); assay: Time-dependent Aβ fibril formation monitored by dye fluorescence; assay type: binding; conditions: dye 5 μM, Aβ 20 μM, 37° C.
[2] = target: monomers, oligomers and fibrils of Aβ (synthetic Aβ1-40) (Homo sapiens, UniProt P05067); assay: Fluorescence response to pre-formed Aβ monomers, oligomers and fibrils; assay type: binding; conditions: dye 5 μM, Aβ 20 μM
monomers, oligomers and fibrils of Aβ (synthetic Aβ1-40), sequence (P05067 672-711): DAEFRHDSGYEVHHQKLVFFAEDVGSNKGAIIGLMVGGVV

Aβ1-40 on-fibril pathway oligomers, sequence (P05067 672-711): as above

**Q.** How did the “fluorescence over the time course of Aβ fibril formation” value [1] turn out when `Cc1ccc2c(c1)sc(-c1ccc(N(C)C)cc1)[n+]2C.[Cl-]` [ThT, Thioflavin T] was run?
**A.** reached a maximum fluorescence after about 1-day and plateaus

**Q.** What about the “fluorescence response to Aβ monomers, oligomers and fibrils” value [2] of the same compound?
**A.** fluorescence response in the increasing order of freshly prepared Aβ monomers, followed by oligomer and fibrils
